This note sets out measurements from patent publication US20120238604A1, “CYTOTOXIC COMPOUNDS” (Molecular Discovery Systems, priority 2009, published 2012).

SMILES strings stand for the structures. Like-named read-outs stand apart in the source and are kept apart here.

Assay [1] has as its system HeLa cells expressing H2B-GFP. Nature of the assay: Induction of mitotic arrest (EC50), mitotic index by phospho-histone 3 staining. Type of assay: cell-based. The settings on record: Homo sapiens, concentration for 50% induction of mitotic arrest, overnight, read-out: EC50 (mitosis) (HeLa). On the procedure: Parallel plates were treated overnight with the compounds to visualize the mitotic cells by staining with anti-phospho-histone 3 and Alexafluor 546 nm secondary antibodies after fixation with 4% paraformaldehyde. Following imaging of the nuclear GFP and phospho-histone 3 signals using an IN Cell Analyser (GE Healthcare), determination of the mitotic index by analysis of the images with Developer™ software (GE Healthcare) permitted estimation of the concentration that leads to 50% induction of the mitotic arrest (EC50). It can be seen that inhibition of cell proliferation and mitosis correlate well for the compounds tested.

The subject of assay [2] is HeLa cells expressing H2B-GFP. Nature of the assay: Inhibition of cell proliferation (GI50) by nuclear counts, IN Cell Analyser. Type of assay: cell-based, human. The settings on record: for GI50: Homo sapiens; for GI50 / Anti-proliferative activity (effect of substitution, in words): HeLa; for GI50 / GI50 (HeLa): concentration causing 50% inhibition of cell proliferation, nuclear counts every 24 hours; for Anti-proliferative activity (effect of substitution, in words): text comment on Table 3. Here is the method:
Table 3 HeLa cells expressing H2B-GFP were plated in 96-well plates and exposed to concentrations ranging from 100 μM to […] of the indicated compounds C1-C78. The number of cells was then determined every 24 hours by imaging of the plates using an IN Cell Analyser (GE Healthcare), followed by measurement of the number of intact cell nuclei using Developer™ software (GE Healthcare). Drug concentrations that cause 50% inhibition of cell proliferation (GI50) were determined from the nuclear counts using GraphPad Prism software or ED50v10 freeware.

As for `COc1ccccc1/C=N/NC(=S)Nc1cccc(C)c1` [C1], the EC50 (as a rule, the concentration needed to bring the measured effect to its halfway point) in assay [1] (values given in μM) is roughly 1 µM. The GI50 (commonly the concentration giving 50% growth inhibition) in assay [2] amounted to 700 nM.
`COc1ccccc1/C=N/N(C)C(=S)Nc1cccc(C)c1` [C2] had a GI50 in assay [2] of roughly 15000 nM.
The same measure, in the same setting: under `COc1ccccc1/C(C)=N/NC(=S)Nc1cccc(C)c1` [C3] stands no less than 20000 nM; under `COc1ccccc1/C=N/N(C)C(=S)N(C)c1cccc(C)c1` [C4], no less than 20000 nM.
The same measure, in the same setting: for `COc1ccccc1/C=N/NC(=S)Nc1ccc(C#N)cc1` [C5] the value was roughly 20000 nM.
As to `COc1ccccc1/C=N/NC(=S)Nc1ccccc1C` [C6], the EC50 in assay [1] (values in nM) was found to be 0.15 µM. Further, in assay [2], the 50% growth inhibitory concentration (GI50) stood at 90 nM.
For `COc1ccccc1/C=N/NC(=S)Nc1ccccc1` [C7], the GI50 in assay [2] is 5000 nM.
In the case of `COc1ccccc1/C=N/NC(=S)Nc1ccccc1Cl` [C8], in assay [1] (values in nM), the EC50 was determined as 0.3 µM. In assay [2], the 50% growth inhibitory concentration (GI50) was found to be 100 nM.
Take `COc1ccc(NC(=S)N/N=C/c2ccccc2OC)cc1` [C10]: the EC50 in assay [1] (values given in μM) was greater than 1 µM. Halving of growth in assay [2] (GI50) required 2000 nM.
In assay [2], `COc1ccccc1/C=N/NC(=S)Nc1cccc(C#N)c1` [C11] displayed a GI50 of 2000 nM.
Same read-out and setting: under `COc1ccccc1/C=N/NC(=S)NC1CCCCC1` [C12] stands no less than 20000 nM; under `COc1ccccc1/C=N/NC(=S)Nc1ccc(Cl)cc1` [C13], 1000 nM.
In the case of `COc1ccccc1/C=N/NC(=O)Nc1cccc(C)c1` [C14], the concentration for 50% growth inhibition (GI50) in assay [2] came to 4000 nM.
In the case of `COc1ccccc1/C=N/NC(=S)Nc1ccccc1OC` [C15], the EC50 in assay [1] (values in nM) was roughly 0.07 µM. In assay [2], the “Anti-proliferative activity (effect of substitution, in words)” value (from here on “Anti-proliferative activity”) is “greatly increase the anti-proliferative activity” and the concentration for 50% growth inhibition (GI50) was determined as 25 nM.
`COc1ccccc1/C=N/NC(=S)Nc1cc(Cl)cc(Cl)c1` [C16] displayed a GI50 in assay [2] of 2600 nM.
In assay [2], `COc1ccccc1/C=N/NC(=S)Nc1cccc(F)c1` [C17] displayed a 50% growth inhibitory concentration (GI50) of roughly 1000 nM.
`COc1ccccc1/C=N/NC(=S)Nc1ccc(C)cc1` [C18]: in assay [1] (values in nM), the EC50 is no less than 0.03 µM. This compound displayed a GI50 in assay [2] of 700 nM.
In turn, `COc1ccc(OC)c(/C=N/NC(=S)Nc2cccc(C)c2)c1` [C19] came in with a concentration for 50% growth inhibition (GI50) in assay [2] of no less than 15000 nM.
As to `COc1cccc(/C=N/NC(=S)Nc2cccc(C)c2)c1OC` [C20], the “GI50 (HeLa)” value in assay [2] was “no activity”.
Turning to `COc1cccc(OC)c1/C=N/NC(=S)Nc1cccc(C)c1` [C21], in assay [2], the “GI50 (HeLa)” value was “no activity”.
Same read-out and setting: for `Cc1cccc(NC(=S)N/N=C/c2ccccc2C)c1` [C22] the value was “no activity”.
`COc1ccccc1/C=N/NC(=S)Nc1ccc(C(F)(F)F)cc1` [C23] had a GI50 in assay [2] of no less than 20000 nM.
The same measure, in the same setting: for `COc1ccccc1/C=N/NC(=S)Nc1cccc(Cl)c1` [C24] the value was 500 nM.
For the compound `COc1ccccc1/C=N/NC(=S)NCc1ccccc1` [C25], the “GI50 (HeLa)” value in assay [2] is given as “no activity”.
With `COc1cccc(NC(=S)N/N=C/c2ccccc2OC)c1` [C26], the EC50 in assay [1] (values given in μM) was roughly 1 µM. This compound also had a GI50 in assay [2] of 1300 nM.
The compound `Cc1cccc(NC(=S)N/N=C/c2ccccc2F)c1` [C27] registered a GI50 in assay [2] of no less than 20000 nM.
The same measure, in the same setting: for `COc1ccccc1/C=N/NC(=S)Nc1ccc(F)c(Cl)c1` [C28] the value was roughly 3000 nM.
On the same count and under the same terms, under `COc1ccccc1/C=N/NC(=S)Nc1ccc(F)c(C)c1` [CB29] stands 1000 nM; under `COc1ccccc1/C=N/NC(=S)Nc1cc(C)cc(C)c1` [CB30], 500 nM.
For the compound `COc1ccccc1/C=N/NC(=S)Nc1cc(Cl)ccc1OC` [CB31], the concentration for a half-maximal effect (EC50) in assay [1] (values in nM) amounted to 0.05 µM. The same compound yielded a GI50 in assay [2] of 15 nM.
Turning to `COc1ccccc1/C=N/NC(=S)Nc1cccc(Cl)c1OC` [CB32], the GI50 in assay [2] stood at 25 nM.
On the same count and under the same terms, under `C#Cc1ccccc1NC(=S)N/N=C/c1ccccc1OC` [CB33] stands 1000 nM.
For the compound `CCOc1ccccc1NC(=S)N/N=C/c1ccccc1OC` [CB34], the EC50 in assay [1] (values in nM) was found to be 0.01 µM. In addition, in assay [2], the “Anti-proliferative activity” value is “greatly increase the anti-proliferative activity” and the GI50 was found to be 11 nM.
For the compound `COc1ccccc1/C=N/NC(=S)Nc1ccccc1Br` [CB35], the EC50 in assay [1] (values in nM) came to 0.1 µM. This compound also displayed a GI50 in assay [2] of 50 nM.
In assay [2], `COc1ccccc1/C=N/NC(=S)NCc1cccc(C)c1` [CB36] had a GI50 of roughly 5000 nM.
Same read-out and setting: for `COc1ccccc1/C=N/NC(=S)Nc1ccccc1C#N` [CB37] the value was roughly 3000 nM; for `COc1ccccc1/C=N/NC(=S)Nc1c(C)cccc1OC` [CB38], roughly 3000 nM; for `COc1ccccc1/C=N/NC(=S)Nc1cccnc1Cl` [CB39], roughly 3000 nM.
Same read-out and setting: under `FC(F)(F)c1ccccc1NC(=S)N/N=C/c1cccc2c1OCO2` [CB40] stands 500 nM; under `COc1ccccc1/C=N/NC(=S)NC(c1ccccc1)c1ccccc1` [CB41], roughly 5000 nM.
`COc1ccccc1/C=N/NC(=S)Nc1ccc(C)cc1C` [CB42]: in assay [2], the “Anti-proliferative activity” value is recorded as “greatly increase the anti-proliferative activity” and the GI50 is 9.5 nM.
The compound `COc1ccccc1/C=N/NC(=S)Nc1ccc(C(C)C)cc1` [CB43] had a GI50 in assay [2] of roughly 5000 nM.
The same measure, in the same setting: under `COc1ccccc1/C=N/NC(=S)Nc1c(C)cccc1C` [CB44] stands roughly 5000 nM.
Regarding `CCc1ccccc1NC(=S)N/N=C/c1ccccc1OC` [CB45], in assay [2], the “Anti-proliferative activity” value is on record as “greatly increase the anti-proliferative activity” and growth was halved (GI50) at 13 nM.
Take `COc1ccccc1/C=N/NC(=S)Nc1ccccc1C(C)C` [CB46]: in assay [2], the “Anti-proliferative activity” value is listed as “greatly increase the anti-proliferative activity” and the GI50 worked out at 3 nM.
For `COc1cc(C)c(NC(=S)N/N=C/c2ccccc2OC)cn1` [CB47], the GI50 in assay [2] is roughly 300 nM.
On to `COc1ccccc1/C=N/NC(=S)Nc1cnccc1C(F)(F)F` [CB48], for which the GI50 in assay [2] was 100 to 300 nM.
Same read-out and setting: for `COc1ccccc1/C=N/NC(=S)Nc1cccc2ccccc12` [CB49] the value was 100 to 300 nM; for `COC(=O)c1sccc1NC(=S)N/N=C/c1ccccc1OC` [CB50], roughly 3000 nM; for `COc1ccnc(NC(=S)N/N=C/c2ccccc2OC)c1` [CB51], roughly 10000 nM.
Consider `COc1ccccc1/C=N/NC(=S)Nc1cccnc1C` [CB52], for which the 50% growth inhibitory concentration (GI50) in assay [2] was in the range of 100 to 300 nM.
Still for that read-out and setting: for `COc1ccccc1/C=N/NC(=S)Nc1cnccc1C` [CB53] the value was roughly 10000 nM; for `COc1ccccc1/C=N/NC(=S)Nc1cccnc1OC` [CB54], 17 nM.
On the same count and under the same terms, for `COc1ccccc1/C=N/NC(=S)Nc1cccc(C)n1` [CB55] the value was roughly 1000 nM.
For `COc1ccccc1/C=N/NC(=S)Nc1ccccc1OCC(C)C` [CB56], the EC50 in assay [1] (values in nM) is roughly 1 µM.
With `COc1ccccc1/C=N/NC(=S)Nc1ccccc1CCO` [CB57], the 50% effective concentration (EC50) in assay [1] (values in nM) was roughly 2 µM.
Still for that read-out and setting: for `COc1ccccc1/C=N/NC(=S)Nc1cc(C(=O)O)ccc1OC` [CB58] the value was roughly 10 µM; for `COc1ccccc1/C=N/NC(=S)Nc1cc(-c2ccccc2)ccc1OC` [CB59], roughly 10 µM; for `COc1ccccc1/C=N/NC(=S)Nc1ccccc1OC(F)(F)F` [CB60], roughly 0.5 µM.
On the same count and under the same terms, under `COc1ccccc1/C=N/NC(=S)Nc1ccc(F)cc1C(F)(F)F` [CB61] stands roughly 0.2 µM; under `COc1ccccc1/C=N/NC(=S)Nc1ccc(Cl)cc1C(F)(F)F` [CB62], roughly 0.05 µM; under `CCOCCOc1ccccc1NC(=S)N/N=C/c1ccccc1OC` [CB63], roughly 2 µM.
Take `COc1ccccc1/C=N/NC(=S)Nc1ccc(-c2ccccc2)cc1OC(F)(F)F` [CB64]: the EC50 in assay [1] (values in nM) is greater than 10 µM.
With `COc1ccccc1/C=N/NC(=S)Nc1ccc(N)c(C(F)(F)F)c1` [CB65], the EC50 in assay [1] (values in nM) stood at 0.1 µM.
For the compound `CCN(CC)CCOc1ccccc1NC(=S)N/N=C/c1ccccc1OC` [CB66], the EC50 in assay [1] (values in nM) was greater than 10 µM.
Regarding `CCOc1ccccc1NC(=S)N/N=C/c1cnccc1OC` [CB67], in assay [1] (values in nM), the EC50 was greater than 3 µM.
On to `CCOc1ccccc1NC(=S)N/N=C/c1cc(N(O)O)ccc1OC` [CB68], for which, in assay [1] (values in nM), the EC50 is greater than 10 µM.
Same read-out and setting: under `COc1ccccc1/C=N/NC(=S)Nc1cccc2c1CCNC2` [CB69] stands greater than 10 µM; under `CCOc1ccccc1NC(=S)N/N=C/c1cccnc1N` [CB70], roughly 1 µM.
On the same count and under the same terms, for `CCOc1ccccc1NC(=S)N/N=C/c1cnccc1C` [CB71] the value was roughly 0.5 µM; for `CCOc1ccccc1NC(=S)N/N=C/c1ccncc1N` [CB72], greater than 10 µM; for `CCOc1ccccc1NC(=S)N/N=C/c1cccnc1OC` [CB73], roughly 1 µM.
The same measure, in the same setting: under `CCOc1ccccc1NC(=S)N/N=C/c1cc(O)ccc1OC` [CB74] stands roughly 1 µM.
In the case of `COc1ccccc1/C=N/NC(=S)Nc1ccc(Cl)cc1Cl` [CB75], the EC50 in assay [1] (values in nM) is 0.02 µM. The “Anti-proliferative activity” value in assay [2] was “greatly increase the anti-proliferative activity”.
For the compound `COc1ccccc1/C=N/NC(=S)Nc1ccc2c(c1)OCO2` [CB76], in assay [1] (values in nM), the EC50 is greater than 10 µM.
Same read-out and setting: for `COc1ccccc1/C=N/NC(=S)Nc1cccnc1` [CB77] the value was roughly 2 µM; for `COc1ccccc1Nc1nnc(-c2ccccc2OC)[nH]1` [CB78], greater than 10 µM.
